A word on the inhibition in vivo: it is the percentage by which the read-out fell short of the control. For orientation: LD50 means the dose at which mortality reaches 50%. A lower LD50 goes with a more toxic substance.

In ChEMBL document CHEMBL3272267, “Synthesis and antiinflammatory and hypnotic activity of 5-alkoxy-3-(N-substituted carbamoyl)-1-phenylpyrazoles” (J Med Chem, 1977) one finds inhibition in vivo, HD50 and LD50 data, which are given here for 48 compounds.

One data set concerns Rattus norvegicus. Description: Antiinflammatory activity in Wistar rat assessed as inhibition of carrageenan-induced hind paw edema at 100 mg/kg, po administered as gum arabic suspension 30 mins prior to carrageenin injection measured 3 hrs post-carrageenin injection. It counts as functional. (In general: In the carrageenan paw model, swelling and tenderness develop within hours.)

The next data set concerns Mus musculus. Description: Hypnotic activity in ip dosed ddN mouse assessed as loss of righting reflex administered as gum arabic suspension measured within 60 mins. It is filed as functional.
Data set [1] is described as follows: Acute toxicity in po dosed mouse. It counts as organism-based. Conditions: in vivo.

For `CCCOc1cc(C(=O)N(C)C)nn1-c1ccccc1`, in the data set on Rattus norvegicus, the inhibition in vivo at 100 mg/kg stood at 26.2%. In addition, in the data set with Mus musculus, the HD50 amounted to 27 mg/kg. The same compound had an LD50 in data set [1] of 320 mg/kg.
Turning to `CCCCOc1cc(C(=O)Nc2ccccc2C(=O)O)nn1-c1ccccc1`, in the data set with Rattus norvegicus, the inhibition in vivo at 100 mg/kg turned out to be 0%.
Still for that read-out and setting: to `CCCCOc1cc(C(=O)NCCN(CC)CC)nn1-c1ccccc1` belongs 23.6%.
In the case of `COc1cc(C(=O)N(C)c2ccc(C)cc2)nn1-c1ccccc1`, in the data set with Rattus norvegicus, the inhibition in vivo at 100 mg/kg amounted to 22.3%.
Regarding `CCCCOc1cc(C(=O)N(C)CCN(C)C)nn1-c1ccccc1`, in the data set with Rattus norvegicus, the inhibition in vivo at 100 mg/kg was 28.2%.
Same read-out and setting: to `CCCCOc1cc(C(=O)N2CCN(C)CC2)nn1-c1ccccc1` belongs 32.3%.
As to `CCCCCOc1cc(C(=O)N(C)C)nn1-c1ccccc1`, in the data set with Rattus norvegicus, the inhibition in vivo at 100 mg/kg was found to be 20%. In addition, the HD50 in the data set on Mus musculus came out at 63 mg/kg. In data set [1], this compound showed a median lethal dose (LD50) of 420 mg/kg.
On to `CCCCNC(=O)c1cc(OCCCC)n(-c2ccccc2)n1`, for which the inhibition in vivo at 100 mg/kg in the data set with Rattus norvegicus is 43.3%. Also, the HD50 in the data set with Mus musculus was 70 mg/kg. In addition, the LD50 in data set [1] was found to be 370 mg/kg.
On to `CCOc1cc(C(=O)N2CCOCC2)nn1-c1ccccc1`, for which the inhibition in vivo at 100 mg/kg in the data set on Rattus norvegicus is 35.4%.
On the same count and under the same terms, to `CCCCOc1cc(C(=O)N2CCN(CCO)CC2)nn1-c1ccccc1` belongs 41.3%.
Same read-out and setting: the same measure for `COc1cc(C(=O)N2CCN(CCO)CC2)nn1-c1ccccc1`: 10.3%; for `COc1cc(C(=O)N2CCCC2)nn1-c1ccccc1`: 29.2%.
`CCCCC1C(=O)N(c2ccccc2)N(c2ccccc2)C1=O` [PHENYLBUTAZONE]: the inhibition in vivo at 100 mg/kg in the data set on Rattus norvegicus was determined as 54.5%.
Regarding `CCOc1cc(C(=O)N(C)C)nn1-c1ccccc1`, the inhibition in vivo at 100 mg/kg with Rattus norvegicus was determined as 65.8%. Also, the HD50 in the data set with Mus musculus was determined as 26 mg/kg. This compound also showed an LD50 in data set [1] of 330 mg/kg.
Taken in the same sequence, the figures for `CCCCOc1cc(C(N)=O)nn1-c1ccccc1` were 26.5%, 94 mg/kg and 360 mg/kg.
Consider `COc1cc(C(=O)N2CCN(C)CC2)nn1-c1ccccc1`, for which, in the data set with Rattus norvegicus, the inhibition in vivo at 100 mg/kg stood at 56.8%.
On the same count and under the same terms, the same measure for `CCCCOc1cc(C(=O)N2CCOCC2)nn1-c1ccccc1`: 32.9%.
The same measure, in the same setting: to `COc1cc(C(=O)NC(C)C)nn1-c1ccccc1` belongs 24.8%.
For the compound `COc1cc(C(=O)N(C)C)nn1-c1ccccc1`, the inhibition in vivo at 100 mg/kg in the data set with Rattus norvegicus came out at 47.5%. For the same compound, in the data set on Mus musculus, the HD50 worked out at 90 mg/kg. In addition, in data set [1], the LD50 was 385 mg/kg.
As for `CCCCOc1cc(C(=O)N2CCN(CCOC(=O)c3ccccc3)CC2)nn1-c1ccccc1`, the inhibition in vivo at 100 mg/kg in the data set with Rattus norvegicus amounted to 5.9%.
Turning to `CC(C)Oc1cc(C(=O)N(C)C)nn1-c1ccccc1`, in the data set on Rattus norvegicus, the inhibition in vivo at 100 mg/kg was 43.9%. Besides, the HD50 with Mus musculus is 49 mg/kg. This compound also had an LD50 in data set [1] of 525 mg/kg.
For the compound `CCCOc1cc(C(=O)N2CCOCC2)nn1-c1ccccc1`, the inhibition in vivo at 100 mg/kg in the data set with Rattus norvegicus came out at 23.5%.
Same read-out and setting: the same measure for `CCCCOc1cc(C(=O)N(CC)CC)nn1-c1ccccc1`: 44.1%.
`CCCCOc1cc(C(=O)NCCC)nn1-c1ccccc1`: in the data set with Rattus norvegicus, the inhibition in vivo at 100 mg/kg worked out at 51.2%. The HD50 in the data set with Mus musculus was 39 mg/kg. In addition, the LD50 in data set [1] was 650 mg/kg.
Regarding `CCCCOc1cc(C(=O)N(C)CCN(CC)CC)nn1-c1ccccc1`, the inhibition in vivo at 100 mg/kg in the data set with Rattus norvegicus came out at 29.5%.
For the compound `CCCCNC(=O)c1cc(OC)n(-c2ccccc2)n1`, the inhibition in vivo at 100 mg/kg in the data set with Rattus norvegicus is 20.6%.
As to `COc1cc(C(=O)N2CCOCC2)nn1-c1ccccc1`, the inhibition in vivo at 100 mg/kg in the data set with Rattus norvegicus amounted to 73.8%.
On the same count and under the same terms, the same measure for `CCCCOc1cc(C(=O)N2CCN(CCOC(=O)CC)CC2)nn1-c1ccccc1`: 0%; for `CCCCOc1cc(C(=O)NC(C)C)nn1-c1ccccc1`: 15.8%.
As to `CCCCOc1cc(C(=O)N(C)C)nn1-c1ccccc1`, the inhibition in vivo at 100 mg/kg in the data set with Rattus norvegicus stood at 18.7%. In addition, the HD50 in the data set with Mus musculus was 33 mg/kg. This compound showed an LD50 in data set [1] of 460 mg/kg.
As for `C=CCNC(=O)c1cc(OCCCC)n(-c2ccccc2)n1`, in the data set with Rattus norvegicus, the inhibition in vivo at 100 mg/kg was found to be 4.4%.
Turning to `CN1C(=O)NC(=O)C(C)(C2=CCCCC2)C1=O` (stereo not drawn) [HEXOBARBITAL], the HD50 in the data set with Mus musculus worked out at 91 mg/kg. Also, the LD50 in data set [1] was found to be 745 mg/kg.
Consider `CCN(CC)CCNC(=O)c1cc(OC)n(-c2ccccc2)n1`, for which, in the data set with Rattus norvegicus, the inhibition in vivo at 100 mg/kg came to 54.1%.
Take `CC(C)CCOc1cc(C(=O)N(C)C)nn1-c1ccccc1`: the inhibition in vivo at 100 mg/kg in the data set on Rattus norvegicus was determined as 25.3%. The HD50 in the data set on Mus musculus came to 47 mg/kg. The LD50 in data set [1] came out at 350 mg/kg.
On to `CCCCOc1cc(C(=O)N2CCN(CCOC(C)=O)CC2)nn1-c1ccccc1`, for which the inhibition in vivo at 100 mg/kg with Rattus norvegicus amounted to 43.9%.
Still for that read-out and setting: the same measure for `CCCCOc1cc(C(=O)N2CCCC2)nn1-c1ccccc1`: 17.6%.
The same measure, in the same setting: to `COc1cc(C(=O)Nc2ccccc2C(=O)O)nn1-c1ccccc1` belongs 24.1%.
Regarding `CCCCOc1cc(C(=O)NC)nn1-c1ccccc1`, the inhibition in vivo at 100 mg/kg with Rattus norvegicus worked out at 65%. In addition, in the data set on Mus musculus, the HD50 worked out at 48 mg/kg. The compound further registered a median lethal dose (LD50) in data set [1] of 325 mg/kg.
`CCCCOc1cc(C(=O)NCCCN(C)C)nn1-c1ccccc1`: the inhibition in vivo at 100 mg/kg in the data set on Rattus norvegicus was 29.8%.
The same measure, in the same setting: to `Cc1c(N(C)C)c(=O)n(-c2ccccc2)n1C` [AMINOPYRINE] belongs 66%.
For `CCCCOc1cc(C(=O)NCC)nn1-c1ccccc1`, the inhibition in vivo at 100 mg/kg in the data set with Rattus norvegicus is 0%. Moreover, the HD50 in the data set with Mus musculus was found to be 44 mg/kg. Moreover, the LD50 in data set [1] turned out to be 400 mg/kg.
On to `CCCCOc1cc(C(=O)N2CCN(C(=O)c3cc(OCCCC)n(-c4ccccc4)n3)CC2)nn1-c1ccccc1`, for which the inhibition in vivo at 100 mg/kg in the data set with Rattus norvegicus amounted to 0%.
For the compound `COc1cc(C(=O)Nc2cccc(C(F)(F)F)c2)nn1-c1ccccc1`, in the data set with Rattus norvegicus, the inhibition in vivo at 100 mg/kg came out at 20.9%.
Still for that read-out and setting: to `CCCCOc1cc(C(=O)N2CCCCC2)nn1-c1ccccc1` belongs 15.6%.
The same measure, in the same setting: to `COc1cc(C(=O)N2CCCCC2)nn1-c1ccccc1` belongs 28.2%; to `CNC(=O)c1cc(OC)n(-c2ccccc2)n1`, 57.9%.
Same read-out and setting: to `COc1cc(C(N)=O)nn1-c1ccccc1` belongs 34.3%; to `CCCCOc1cc(C(=O)NCCO)nn1-c1ccccc1`, 61.2%.
